ChEMBL document CHEMBL1255199, “Endochin optimization: structure-activity and structure-property relationship studies of 3-substituted 2-methyl-4(1H)-quinolones with antimalarial activity” (J Med Chem, 2010)
pEC50: −log10 of the molar value. ≈ marks a conversion by molar mass, not a printed value.

How the values were obtained:
[1] = test system: Plasmodium falciparum; assay: Antimalarial activity against chloroquine, mefloquine, pyrimethamine and atovaquone-resistant Plasmodium falciparum TM90-C2B infected in human A+ erythrocytes after 72 hrs by SYBR Green I assay; type: functional, organism-based
[2] = test system: Plasmodium falciparum; assay: Antimalarial activity against chloroquine and pyrimethamine-resistant Plasmodium falciparum W2 infected in human A+ erythrocytes after 72 hrs by SYBR Green I assay; type: functional, organism-based; conditions: W2, 72 h
[3] = test system: J774; assay: Cytotoxicity against mouse J774 cells; type: cell-based
[4] = Lipophilicity, log D of the compound at pH 7.4; conditions: buffer
[5] = Passive transcellular permeability of the compound at pH 7.4 by PAMPA; type: ADME; conditions: read-out: permeability
[6] = Passive transcellular permeability of the compound at pH 4 by PAMPA; type: ADME; conditions: read-out: permeability
[7] = Half life in mouse liver microsomes; type: ADME, Microsome
[8] = Half life in human liver microsomes; type: ADME, Microsome
[9] = in vitro; conditions: mouse, J774 cells
Description: Cytotoxicity index, ratio of EC50 for mice (Mus musculus) J774 cells to EC50 for chloroquine, mefloquine, pyrimethamine and atovaquone-resistant Plasmodium falciparum TM90-C2B

[10] = physchem; conditions: aqueous, pH 7.4
Description: Aqueous solubility of the compound at pH 7.4 by HPLC analysis

COc1cc2[nH]c(C)cc(=O)c2cc1Cl
pEC50 [1]: 5.73
pEC50 [2]: 5.50
pEC50 [3]: < 4.35
logD [4]: 1.95
Papp [5]: 25.2 ×10⁻⁶ cm/s
Papp [6]: 11.9 ×10⁻⁶ cm/s
half-life [7]: 62.4 min
half-life [8]: 161 min
selectivity ratio [9]: > 24.1
solubility [10]: 2 µM (≈ 0.447 µg/mL)

CCc1c(C)[nH]c2cc(OC)c(Cl)cc2c1=O
pEC50 [1]: 7.56
pEC50 [2]: 7.32
pEC50 [3]: 4.72
logD [4]: 2.43
Papp [5]: 57.3 ×10⁻⁶ cm/s
Papp [6]: 96.4 ×10⁻⁶ cm/s
half-life [7]: 28.4 min
half-life [8]: 33.8 min
selectivity ratio [9]: 689
solubility [10]: 10 µM (≈ 2.52 µg/mL)

COc1cc2[nH]c(C)c(-c3ccccc3)c(=O)c2cc1Cl
pEC50 [1]: 7.82
pEC50 [2]: 7.58
pEC50 [3]: < 4.48
logD [4]: 1.65
Papp [5]: 48.3 ×10⁻⁶ cm/s
Papp [6]: 105 ×10⁻⁶ cm/s
half-life [7]: 21.3 min
half-life [8]: 128 min
selectivity ratio [9]: > 2170
solubility [10]: 5 µM (≈ 1.5 µg/mL)

Cc1[nH]c2ccccc2c(=O)c1/C=C/c1ccc(O)cc1
pEC50 [1]: < 5.05
pEC50 [2]: < 5.05
pEC50 [3]: < 4.44
logD [4]: 1.77
Papp [5]: 17 ×10⁻⁶ cm/s
Papp [6]: 10.7 ×10⁻⁶ cm/s
selectivity ratio [9]: > 4
solubility [10]: > 20 µM

Cc1[nH]c2ccccc2c(=O)c1-c1ccccc1
pEC50 [1]: 6.27
pEC50 [2]: 6.15
pEC50 [3]: < 4.37
logD [4]: 2.02
Papp [5]: 33 ×10⁻⁶ cm/s
Papp [6]: 16.6 ×10⁻⁶ cm/s
selectivity ratio [9]: > 79.1
solubility [10]: > 20 µM

CCc1c(C)[nH]c2cc(OC)c(Br)cc2c1=O
pEC50 [1]: 7.44
pEC50 [2]: 6.75
pEC50 [3]: < 4.47
logD [4]: 1.7
Papp [5]: 75.1 ×10⁻⁶ cm/s
Papp [6]: 81.9 ×10⁻⁶ cm/s
selectivity ratio [9]: > 933
solubility [10]: 2 µM (≈ 0.592 µg/mL)

COc1cc2[nH]c(C)c(-c3ccccc3)c(=O)c2cc1Br
pEC50 [1]: 7.60
pEC50 [2]: 7.10
pEC50 [3]: < 4.54
logD [4]: 2.2
Papp [5]: 330 ×10⁻⁶ cm/s
Papp [6]: 306 ×10⁻⁶ cm/s
selectivity ratio [9]: > 1160
solubility [10]: < 2 µM

COc1cc2[nH]c(C)c(/C=C/C(=O)OC(C)(C)C)c(=O)c2cc1Cl
pEC50 [1]: 7.27
pEC50 [2]: 7.21
pEC50 [3]: < 4.54
logD [4]: 1.81
Papp [5]: 261 ×10⁻⁶ cm/s
Papp [6]: 249 ×10⁻⁶ cm/s
half-life [7]: 43.9 min
half-life [8]: 60.3 min
selectivity ratio [9]: > 533
solubility [10]: 5 µM (≈ 1.75 µg/mL)

Cc1[nH]c2ccc(Cl)cc2c(=O)c1Cc1ccccc1
pEC50 [1]: 5.48
pEC50 [2]: 5.61
pEC50 [3]: < 4.45
logD [4]: 2.79
Papp [5]: 415 ×10⁻⁶ cm/s
Papp [6]: 422 ×10⁻⁶ cm/s
selectivity ratio [9]: > 10.7
solubility [10]: < 2 µM

COc1cccc2[nH]c(C)c(-c3ccccc3)c(=O)c12
pEC50 [1]: 5.29
pEC50 [2]: 5.09
pEC50 [3]: < 4.42
logD [4]: 1.63
Papp [5]: 333 ×10⁻⁶ cm/s
Papp [6]: 24.4 ×10⁻⁶ cm/s
selectivity ratio [9]: > 7.4
solubility [10]: > 20 µM

Cc1[nH]c2c(Cl)cc(Cl)cc2c(=O)c1-c1ccccc1
pEC50 [1]: < 5.09
pEC50 [2]: < 5.09
pEC50 [3]: < 4.48
logD [4]: 3.32
Papp [5]: 232 ×10⁻⁶ cm/s
Papp [6]: 162 ×10⁻⁶ cm/s
selectivity ratio [9]: > 4
solubility [10]: < 2 µM

Cc1[nH]c2ccc(Br)cc2c(=O)c1Br
pEC50 [1]: 6.47
pEC50 [2]: 5.85
pEC50 [3]: < 4.50
logD [4]: 1.76
Papp [5]: 95.2 ×10⁻⁶ cm/s
Papp [6]: 133 ×10⁻⁶ cm/s
selectivity ratio [9]: > 92.9
solubility [10]: > 20 µM

Cc1[nH]c2c(Cl)cccc2c(=O)c1-c1ccccc1
pEC50 [1]: < 5.03
pEC50 [2]: < 5.03
pEC50 [3]: < 4.43
logD [4]: 2.6
Papp [5]: 165 ×10⁻⁶ cm/s
Papp [6]: 158 ×10⁻⁶ cm/s
selectivity ratio [9]: > 4
solubility [10]: 5 µM (≈ 1.35 µg/mL)

COc1ccc2c(=O)c(Cc3ccccc3)c(C)[nH]c2c1
pEC50 [1]: 5.86
pEC50 [2]: 6.13
pEC50 [3]: < 4.45
logD [4]: 2.52
Papp [5]: 240 ×10⁻⁶ cm/s
Papp [6]: 200 ×10⁻⁶ cm/s
selectivity ratio [9]: > 25.9
solubility [10]: 5 µM (≈ 1.4 µg/mL)
